# Calls of active or inactive are those of the source. No cut-off for these calls is given here.
# Legend:
# V79 = test: (§1) Cytotoxicity against Chinese hamster V79 cells measured after 24 hrs by MTT assay; type: cell-based, Cricetulus griseus; conditions: v79, 24 h
# Plasmodium falciparum [1] = test: Antimalarial activity against CQ-sensitive Plasmodium falciparum 3D7 assessed as parasite growth inhibition incubated for 48 hrs by SYBR Green I dye based fluorescence assay; type: functional, organism-based; conditions: 3D7, 48 h
# [2] = Cytotoxicity against human THP-1 cells assessed as reduction in cell viability measured after 72 hrs by MTT assay; type: cell-based
# Leishmania infantum [3] = test: Antileishmanial activity against axenic amastigote stage of Leishmania infantum infected in THP-1 cells assessed as reduction in parasite growth at 10 uM incubated for 72 hrs by luminescence analysis; type: functional, organism-based
# [4] = Selectivity index, ratio of CC50 for cytotoxicity against human THP-1 cells to IC50 for antitrypanosomal activity against bloodstream form of Trypanosoma brucei Lister 427; type: toxicity, cell-based; conditions: read-out: Ratio CC50/IC50
# [5] = as §1; type: cell-based, Cricetulus griseus; conditions: V79 cells, read-out: LD50
# Trypanosoma brucei [6] = test: Antitrypanosomal activity against bloodstream form of Trypanosoma brucei Lister 427 assessed as parasite growth inhibition incubated for 72 hrs by resazurin staining based assay; type: functional, organism-based; conditions: Lister 427, 72 h
# [7] = Selectivity index, ratio of LD50 for cytotoxicity against Chinese hamster V79 cells to IC50 for antimalarial activity against CQ-sensitive Plasmodium falciparum 3D7; type: toxicity, cell-based; conditions: V79 cells versus Plasmodium falciparum 3D7, read-out: Ratio LD50/IC50
# Hemozoin [8] = test: Inhibition of Beta-hematin formation at 24 to 96 uM after 24 hrs by microplate reader assay; conditions: dose 24-96 µM
# [9] = Hemolytic activity against human erythrocytes at 0.04 to 10 uM incubated for 1 hr by microplate reader assay; type: ADME, tissue-based, Erythrocyte; conditions: dose 0.04-10 µM, read-out: Activity
# [10] = Hemolytic activity against human erythrocytes at <=10 uM incubated for 1 hr by microplate reader assay; type: ADME, tissue-based; conditions: erythrocyte
# Trypanosoma brucei [11] = test: Antitrypanosomal activity against bloodstream form of Trypanosoma brucei Lister 427 assessed as parasite growth inhibition at 10 uM incubated for 72 hrs by resazurin staining based assay; type: functional, organism-based
# [12] = Selectivity index, ratio of CC50 for cytotoxicity against human THP-1 cells to IC50 for antileishmanial activity against axenic amastigote stage of Leishmania infantum infected in THP-1 cells; type: toxicity, cell-based; conditions: read-out: Ratio CC50/IC50
# Leishmania infantum [13] = test: Antileishmanial activity against axenic amastigote stage of Leishmania infantum infected in THP-1 cells assessed as reduction in parasite growth incubated for 72 hrs by luminescence analysis; type: functional, organism-based; conditions: THP-1, 72 h
# Hemozoin [14] = test: Inhibition of Beta-hematin formation at 12 to 48 uM after 24 hrs by microplate reader assay; conditions: dose 12-48 µM
# HepG2 = test: Cytotoxicity against human HepG2 cells; type: cell-based
# Plasmodium falciparum [15] = test: Antiplasmodial activity against Plasmodium falciparum 3D7 infected in erythrocytes assessed as parasite growth inhibition measured after 72 hrs by LDH assay; type: functional, organism-based; conditions: 3D7, Erythrocyte
SMILES,LD50 (V79),IC50 (Plasmodium falciparum [1]) [µM],CC50 at 72 h [2] [µM],inhibition (Leishmania infantum [3]),selectivity ratio [4],IC50 (Trypanosoma brucei [6]) [µM],inhibition (Trypanosoma brucei [11]),other results
CC(C)C[C@@H]1NC(=O)[C@@H](Cc2c[nH]c3ccccc23)n2c1nc1ccc(Cl)cc1c2=O,Not Active,> 10,,,,,,
N=C(N)c1ccc(OCCCCCOc2ccc(C(=N)N)cc2)cc1 [PENTAMIDINE],,,> 10,inactive,,,,
CC(C)C[C@@H]1NC(=O)[C@@H](Cc2c[nH]c3ccccc23)n2c1nc1cc(Cl)c(Cl)cc1c2=O,,0.2,25,inactive,4.2,5.9,,"CC50 at 24 h [5]: 14 µM; selectivity ratio [7]: 70; inhibition (Hemozoin [8]): inactive; hemolysis at 1 h, up to 10 µM [9]: < 6%; Activity [10]: Non-Toxic"
O=C1N[C@@H](Cc2c[nH]c3ccccc23)c2nc3ccccc3c(=O)n2[C@@H]1Cc1c[nH]c2ccccc12,Not Active,> 10,,,,,,
C[C@H]1NC(=O)[C@@H](Cc2c[nH]c3ccccc23)n2c1nc1ccccc1c2=O [FUMIQUINAZOLINE G],Not Active,3.68,,,,,,
CC(C)C[C@@H]1NC(=O)[C@H](Cc2c[nH]c3ccccc23)n2c1nc1ccccc1c2=O,Not Active,> 10,50,inactive,,,inactive,
CC(C)C[C@@H]1NC(=O)[C@@H](Cc2c[nH]c3ccccc23)n2c1nc1cc(I)c(I)cc1c2=O,Not Active,> 10,,,,,,
COc1ccc2nc3n(c(=O)c2c1)[C@H](Cc1c[nH]c2ccccc12)C(=O)N[C@H]3CC(C)C,Not Active,> 10,> 100,inactive,,,inactive,
CC(C)[C@H]1NC(=O)[C@H](Cc2c[nH]c3ccccc23)n2c1nc1ccccc1c2=O,Not Active,> 10,> 100,inactive,,,inactive,
CC(C)C[C@H]1NC(=O)[C@@H](Cc2c[nH]c3ccccc23)n2c1nc1ccccc1c2=O,Not Active,0.47,25,,65.7,0.38,,selectivity ratio [12]: 9.6; IC50 (Leishmania infantum [13]): 2.6 µM
CC[C@H](C)[C@@H]1NC(=O)[C@@H](Cc2c[nH]c3ccccc23)n2c1nc1cc(Cl)c(Cl)cc1c2=O,Not Active,1.51,50,inactive,8.6,5.8,,
CC(C)[C@H]1NC(=O)[C@@H](Cc2c[nH]c3ccccc23)n2c1nc1ccccc1c2=O,Not Active,0.15,> 100,inactive,> 14.1,7.1,,
CC(C)[C@@H]1NC(=O)[C@@H](Cc2c[nH]c3ccccc23)n2c1nc1ccccc1c2=O,,0.1,> 100,inactive,,,inactive,"CC50 at 24 h [5]: 1.91 µM; selectivity ratio [7]: 19; hemolysis at 1 h, up to 10 µM [9]: < 6%; Activity [10]: Non-Toxic; inhibition (Hemozoin [14]): inactive"
CC[C@H](C)[C@@H]1NC(=O)[C@@H](Cc2c[nH]c3ccccc23)n2c1nc1ccccc1c2=O,Not Active,> 10,,,,,,
CC(C)C[C@@H]1NC(=O)[C@@H](Cc2c[nH]c3ccccc23)n2c1nc1ncccc1c2=O,Not Active,3.76,> 100,inactive,,,inactive,
CCCCCCCCCCCCCCCCOP(=O)([O-])OCC[N+](C)(C)C [MILTEFOSINE],,,28.8,,,,inactive,selectivity ratio [12]: 28.8; IC50 (Leishmania infantum [13]): 1 µM

SMILES,LD50 (V79),IC50 (Plasmodium falciparum [1]) [µM],CC50 at 72 h [2] [µM],inhibition (Leishmania infantum [3]),selectivity ratio [4],IC50 (Trypanosoma brucei [6]) [µM],inhibition (Trypanosoma brucei [11]),other results
CC(C)C[C@@H]1NC(=O)[C@@H](Cc2c[nH]c3ccccc23)n2c1nc1cc(-c3nnnn3C)ccc1c2=O,Not Active,1.02,> 50,inactive,,,inactive,
CC(C)C[C@@H]1NC(=O)[C@@H](Cc2c[nH]c3ccccc23)n2c1nc1cnccc1c2=O,Not Active,4,> 100,inactive,,,inactive,
CC(C)C[C@@H]1NC(=O)[C@@H](Cc2c[nH]c3ccccc23)n2c1nc1ccc(O)cc1c2=O,Not Active,0.73,> 100,inactive,> 11.6,8.6,,
CC(C)C[C@@H]1NC(=O)[C@@H](Cc2c[nH]c3ccccc23)n2c1nc1ccccc1c2=O,,0.05,> 100,inactive,,,inactive,"CC50 at 24 h [5]: 1.78 µM; selectivity ratio [7]: 34; hemolysis at 1 h, up to 10 µM [9]: < 6%; Activity [10]: Non-Toxic; inhibition (Hemozoin [14]): inactive"
CC[C@H](C)[C@@H]1NC(=O)[C@@H](Cc2c[nH]c3ccccc23)n2c1nc1ccc(Br)cc1c2=O,Not Active,> 10,50,,9.4,5.3,,selectivity ratio [12]: 6.4; IC50 (Leishmania infantum [13]): 7.8 µM
O=C1N[C@@H](Cc2ccc(OCc3ccccc3)cc2)c2nc3cc(Cl)c(Cl)cc3c(=O)n2[C@@H]1Cc1c[nH]c2ccccc12,Not Active,4,> 100,inactive,> 25.6,3.9,,
Cc1ccc2nc3n(c(=O)c2c1)[C@H](Cc1c[nH]c2ccccc12)C(=O)N[C@H]3CC(C)C,Not Active,> 10,> 100,inactive,,,inactive,
O=C1N[C@H](Cc2ccc(O)cc2)c2nc3ccccc3c(=O)n2[C@H]1Cc1c[nH]c2ccccc12,Not Active,4.18,> 100,inactive,,,inactive,
O=C1N[C@H](Cc2ccc(OCc3ccccc3)cc2)c2nc3ccccc3c(=O)n2[C@H]1Cc1c[nH]c2ccccc12,Not Active,> 10,> 100,inactive,> 62.5,1.6,,
CC[C@H](C)[C@@H]1NC(=O)[C@@H](Cc2c[nH]c3ccccc23)n2c1nc1ccc(Cl)cc1c2=O,Not Active,> 10,,,,,,
CC(C)C[C@H]1NC(=O)[C@H](Cc2c[nH]c3ccccc23)n2c1nc1ccccc1c2=O,Not Active,2,> 100,inactive,,,inactive,
CC(C)C[C@@H]1NC(=O)[C@@H](Cc2c[nH]c3ccccc23)n2c1nc1ccc(I)cc1c2=O,Not Active,> 10,50,,12.2,4.1,,selectivity ratio [12]: 6.7; IC50 (Leishmania infantum [13]): 7.4 µM
Clc1ccc2nccc(N3CCC(CN4CCC(c5c[nH]c6ccccc56)CC4)CC3)c2c1,,,,,,,,EC50 (HepG2): > 10 µM; EC50 (Plasmodium falciparum [15]): 0.034 µM
CC(C)[C@@H]1NC(=O)[C@H](Cc2c[nH]c3ccccc23)n2c1nc1ccccc1c2=O,Not Active,> 10,> 100,inactive,> 21.7,4.6,,
CCN(CC)CCCC(C)Nc1ccnc2cc(Cl)ccc12 (stereo not drawn) [CHLOROQUINE],,,,,,,,Activity [10]: Non-Toxic
CSCC[C@@H]1NC(=O)[C@@H](Cc2c[nH]c3ccccc23)n2c1nc1ccccc1c2=O,Not Active,> 10,,,,,,

# — ChEMBL document CHEMBL5036370, “Indole-Containing Pyrazino[2,1-b]quinazoline-3,6-diones Active against Plasmodium and Trypanosomatids” (ACS Med Chem Lett, 2022)
